Measured values from patent publication US20170355686A1, “NOVEL OXAZOLE COMPOUNDS AS BETA CATENIN MODULATORS AND USES THEREOF” (NEW YORK UNIVERSITY, priority 2014, published 2017).

Test system: Wnt reporter
Test: Wnt reporter (Super 8X Topflash, TCF promoter) luciferase IC50 assay in STF and STF3A cells
Type: cell-based
Settings: for inhibition of the Wnt reporter: HEK293 cells stimulated with either exogenous (STF) or endogenous Wnt 3a (STF3a); for IC50: range over STF (exogenous Wnt3a, paracrine) and STF3A (endogenous Wnt3a, autocrine) HEK293 cells, 24 hours incubation
Method: STF and STF3A cells were cultured in DMEM, 4500 mg/L glucose supplemented with 10% fetal bovine serum, 2 mM L-glutamine, 110 mg/L sodium pyruvate and Penicillin/Streptomycin.
STF cells are HEK293 cells stably expressing the Super 8X Topflash M50 (http://www.addgene.org/12456/; the entire content of which is incorporated herein by reference) reporter. STF3A cells are HEK293 cells stably expressing both Super 8X Topflash reporter and pPGK-mWnt3A. The above cell lines are a gift from David Virshup.
L-Wnt3A cells were cultured in DMEM, 4500 mg/L glucose supplemented with 10% fetal bovine serum and 2 mM L-glutamine and 110 mg/L sodium pyruvate and Penicillin/Streptomycin. Wnt3A-Conditioned media was prepared with L-Wnt3A cells cultured according to recommended protocols from ATCC (http://www.atcc.org/products/all/CRL-2647.aspx#culturemethod).
Unless otherwise indicated, all experiments described herein that call for supplemental Wnt3a utilize Wnt3a conditioned media prepared by harvesting media from L-cells stably transfected with a Wnt3a coding construct (available from ATCC #CRL-2647). The cells are cultured in DMEM containing 10% fetal bovine serum (FBS). The medium, harvested from adherent cells cultured to about 80% confluency over 4 days, is purified through a 0.2 μm filter and stored at 4° C. over several months without an appreciable loss in activity [Willert et al. Nature 423, 448-52 (2003)].
STF and STF3A cells were seeded in 96 well plates, with 20,000 cells in 100 μL media per well. Following 16 hours incubation, 50 μL of media per well containing STF cells were replaced with the same volume of Wnt3A-Conditioned media.
iCRT3 and analogs were tested in triplicates at a concentration range of 50 μM-0.00013 μM, at 5-fold dilutions. Cells were incubated with the compounds for 24 hours.
Cell viability was measured after incubation with 100 μL of PrestoBlue® Cell Viability Reagent in DMEM (1:9) for 30 minutes. Following fluorescence measurements, media containing PrestoBlue reagents was aspirated. Cell were lysed in 60 μL of Dual-Glo® Reagent from the Dual-Glo® Luciferase Assay System. Luciferase activity was quantified with a luminometer after 10 minutes of incubation at room temperature.
Background subtracted luminescence readings (RLU) from the Dual-Glo® Luciferase assay were normalized against background subtracted fluorescence values (RFU) from the PrestoBlue® Cell Viability assay.
The RLU/RFU values were plotted using GraphPad Prism (www.graphpad.com). The curve was fitted with a three parameter curve fitting equation: Y=Min value+(Max value−Min value)/[1+10̂(X−lg IC50)].
Cell lines tested include STF, which are HEK293 cells expressing firefly luciferase under the control of the TCF promoter, and STF3A, which are the same as STF but also expresses Wnt3a constitutively. The two cell lines facilitate the testing of the compounds in the context of Wnt signaling activated in a paracrine (STF) versus autocrine (STF3A) fashion.
Day 0—Seed cells in 96-well plates (20,000 cells per well)
Day 1—Add compounds. For STF cells, half of the medium was also changed to Wnt3a conditioned medium.
Day 2—Measure PrestoBlue (cell viability) and Dual-Glo luciferase (TCF promoter activity).
The concentration range for iCRT3 was 10 μM-0.0000001 μM. All other compounds were tested at a concentration range of 10 μM-0.000026 μM.

IC50 | Structure (SMILES) | inhibition of the Wnt reporter
2 to 8 µM | CCc1ccc(-c2nc(CSCC(=O)NCCc3cccnc3)c(C)o2)cc1 [II-7] | dose dependent inhibition
14 to 30 µM | CCc1ccc(-c2nc(CSCC(=O)NCCc3ccccc3)c(C)o2)cc1 [iCRT3, reference compound] | dose dependent inhibition

Structure (SMILES) | IC50 | inhibition of the Wnt reporter
CCc1ccc(-c2nc(CSCC(=O)NCCc3ccc(F)cc3)c(C)o2)cc1 [II-1, 2-[2-(4-ethyl-phenyl)-5-methyl-oxazol-4-ylmethylsulfanyl]-N-[2-(4-fluoro-phenyl)-ethyl]-acetamide] | 2 to 8 µM | dose dependent inhibition
